pIC50: −log10 of the molar value. Residues, ends and D or L forms follow the SMILES beside them. *: point of attachment. Succinyl(4-O-cholesteryl) = CC(C)CCC[C@@H](C)[C@H]1CC[C@H]2[C@@H]3CC=C4C[C@@H](OC(=O)CCC(=O)*)CC[C@]4(C)[C@H]3CC[C@]12C
Assays:
[1] = test system: HIV-1 envelope protein (Env); assay: Env-mediated cell-cell fusion inhibition (DSP reporter system)
[2] = test system: replicative HIV-1 strain JR-CSF
[3] = test system: MERS-CoV; details: 48 h
[4] = In vitro cytotoxicity (CCK-8), 293T/ACE2 cells; assay type: cell-based; details: human, CCK-8, 48 hours
Description: (§1) The in vitro cytotoxicity was detected by using a CCK-8 cell proliferation/toxicity assay kit (manufacturer: Abbkine, Cat. No.: KTC 011001). […] By using GraphPad Prism software, the inhibition rate curve was fitted and the half-maximal cytotoxic concentration (CC50) of the drug was calculated.

[5] = In vitro cytotoxicity (CCK-8), Hep-2 cells; assay type: cell-based; details: human, CCK-8, 48 hours
Description: as §1

[6] = test system: HIV-1 strain NL4-3 pseudovirus; details: strain NL4-3 pseudovirus
[7] = biological target: N44 (Human immunodeficiency virus type 1 group M subtype B, UniProt P04578); assay: Circular dichroism of lipopeptide complex with target sequence N44; details: CD
[8] = test system: HIV-1 strain JRFL pseudovirus; details: strain JRFL pseudovirus
[9] = test system: T20-resistant mutant strains (HIV-1 strain NL4-3)
[10] = test system: EBOV; details: 48 h
[11] = In vitro cytotoxicity (CCK-8), MT-4 cells; assay type: cell-based; details: human, CCK-8, 48 hours
Description: as §1

[12] = In vitro cytotoxicity (CCK-8), TZM-bl cells; assay type: cell-based; details: human, CCK-8, 48 hours
Description: as §1

[13] = test system: protease K, trypsin, or α-chymotrypsin
[14] = Circular dichroism of lipopeptide alone; assay type: physicochemical; details: CD, 10 µM in PBS pH 7.2
[15] = In vitro cytotoxicity (CCK-8), HEK293T cells; assay type: cell-based; details: human, CCK-8, 48 hours
Description: as §1

[16] = In vitro cytotoxicity (CCK-8), Huh-7 cells; assay type: cell-based; details: human, CCK-8, 48 hours
Description: as §1

[17] = test system: HIV-1 strain SG3.1 living virus
[18] = test system: MARV; details: 48 h
[19] = Temperature stability experiment (antiviral activity after storage); details: 300 µM aqueous solution, room temperature or 37 °C, various time periods; NL4-3 pseudovirus, TZM-bl cells
[20] = test system: H7N9; details: 48 h
[21] = test system: RABV; details: 48 h
[22] = In vitro cytotoxicity (CCK-8), MDCK cells; assay type: cell-based; details: dog, CCK-8, 48 hours
Description: as §1

[23] = test system: VSV; details: 48 h
[24] = test system: seven test cells; assay: In vitro cytotoxicity (CCK-8), average over seven test cells; assay type: cell-based; details: CC50/IC50
Description: as §1

[25] = test system: representative pandemic HIV-1 strain pseudoviruses
[26] = Human serum stability experiment (antiviral activity after incubation); details: 20% human serum, 37 °C, 0 to 240 minutes; NL4-3 pseudovirus, TZM-bl cells

N44, sequence (P04578 538-581): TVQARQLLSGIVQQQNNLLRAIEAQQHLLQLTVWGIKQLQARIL

CC[C@H](C)[C@H](NC(=O)[C@H](CCCCN)NC(=O)[C@H](CCCCN)NC(=O)[C@H](CCC(=O)O)NC(=O)[C@H](CC(C)C)NC(=O)[C@H](CCC(=O)O)NC(=O)[C@H](CCC(=O)O)NC(=O)[C@H](CC(C)C)NC(=O)[C@H](CCC(=O)O)NC(=O)[C@H](CCCCN)NC(=O)[C@H](CCC(=O)O)NC(=O)[C@H](Cc1ccc(O)cc1)NC(=O)[C@H](CCC(=O)O)NC(C)=O)C(=O)N[C@@H](CCC(=O)O)C(=O)N[C@@H](CCC(=O)O)C(=O)N[C@@H](CC(C)C)C(=O)N[C@@H](CC(C)C)C(=O)N[C@@H](CCCCN)C(=O)N[C@@H](CCCCN)C(=O)N[C@@H](C)C(=O)N[C@@H](CCC(=O)O)C(=O)N[C@@H](CCC(=O)O)C(=O)N[C@@H](CCC(N)=O)C(=O)N[C@@H](CCC(N)=O)C(=O)N[C@@H](CCCCN)C(=O)N[C@@H](CCCCN)C(=O)N[C@@H](CC(N)=O)C(=O)N[C@@H](CCC(=O)O)C(=O)N[C@@H](C)C(=O)N[C@@H](C)C(=O)N[C@@H](C)C(=O)N[C@@H](CCCCN)C(=O)N[C@@H](CCCCNC(=O)CCC(=O)O[C@H]1CC[C@@]2(C)C(=CC[C@H]3[C@@H]4CC[C@H]([C@H](C)CCCC(C)C)[C@@]4(C)CC[C@@H]32)C1)C(N)=O [LP-128] (Ac-EYEKELEELEKKIEELLKKAEEQQKKNEAAAKK(Succinyl(4-O-cholesteryl))-NH2)
pIC50 ([1]; read-out: average IC50 value, membrane fusion of 12 viruses, average over Env of 12 representative pandemic HIV-1 strains): 11.40
inhibitory activity against membrane fusions of 12 viruses higher than that of the T20 ([1]; versus T20): 2790 folds
inhibitory activity higher than the T20, JR-CSF ([2]; TZM-bl cells, versus T20): 750 folds
pIC50 ([2]; replicative strain JR-CSF, 48 h): 11.13
pIC50 [3]: 6.34
CC50 at 48 h [4]: 24100 nM
CC50 at 48 h [5]: 12500 nM
pIC50 [6]: 11.49
Tm value of the mixture with N44 ([7]; [θ]222, 20-98 °C at 2 °C/min): 90 °C
α-helix content of the mixture with N44 ([7]; lipopeptide and N44 each 10 µM in PBS pH 7.2): 84%
pIC50 [8]: 11.30
pIC50 ([9]; T20-resistant mutant strains ( strain NL4-3, 48 h)): 11.04
inhibitory activity against 12 drug-resistant mutant strains higher than that of the LP-98 ([9]; versus LP-98): 292 folds
pIC50 [10]: 6.56
CC50 at 48 h [11]: 28200 nM
CC50 at 48 h [12]: 7490 nM
change in antiviral activity after treatment with three proteases [13]: no significant change
α-helix content, lipopeptide alone [14]: 66%
CC50 at 48 h [15]: 8720 nM
CC50 at 48 h [16]: 40300 nM
inhibitory activity higher than that of the T20, SG3.1 ([17]; TZM-bl cells, versus T20): 4282 folds
pIC50 ([17]; strain SG3.1 living virus): 11.76
pIC50 [18]: 6.27
change in antiviral activity after treatment at different temperatures [19]: no significant change
pIC50 [20]: 6.45
pIC50 [21]: 5.95
CC50 at 48 h [22]: 18000 nM
pIC50 [23]: 5.83
therapeutic selective index (SI) [24]: very high
pIC50 ([25]; representative pandemic strain pseudoviruses, 48 h): 11.50
inhibitory activity against 12 pseudoviruses higher than that of the T20 ([25]; versus T20): 6286 folds
change in antiviral activity after treatment with human serum [26]: no significant change

— patent publication EP4685153A1 (priority 2023, dated 2024)
